Source: patent US20220363667A1 (Nippon Chemiphar Co., Ltd., priority 2018, published 2022)
Where a name gives a salt, the structure may show the parent alone.

Each compound was assayed on SD rats (assay: Rat formalin test). Settings: po, 30 mg/kg orally once, pain behavior time from 15 to 30 minutes after formalin administration vs vehicle group, read-out: Inhibition ratio (pain behavior inhibition ratio).
Assay type: in vivo
Experimental: 30 mg/kg of a vehicle or a test substance was orally administrated to SD rats once, and according to the method described in McNamara C. R., Mandel-Brehm J., Bautista D. M., Siemens J., Deranian K. L., Zhao M., Hayward N. J., Chong J. A., Julius D., Moran M. M., Fanger C. M.: TRPA1 mediates formalin-induced pain. Proc. Natl. Acad. Sci. U.S.A. 104, 2007, 13525-13530, 50 μL of a 2.0% formalin solution as a pain-inducing substance was subcutaneously administered under the skin of the plantar plate of the right hind limb of each rat.
Regarding the evaluation, the pain behavior inhibition ratio was determined from the pain behavior time of each test substance-administered group with respect to the pain behavior time of the vehicle-administered group for 15 minutes measured from 15 minutes to 30 minutes after the administration.

Row | Compound | inhibition in vivo at 30 mg/kg
1 | O=C(N[C@@H]1CCN(c2cncc(C(F)(F)F)c2)C1)C1CC1c1cc(Cl)cc(Cl)c1 (single isomer, unassigned) [Example 99A] | < 10%
2 | O=C(N[C@@H]1CCN(c2cncc(C(F)(F)F)c2)C1)C1CC1c1ccc(Br)cc1 (single isomer, unassigned) [Example 100A] | ≥ 20%
3 | O=C(Cc1ccc(C2CC2)cc1)N[C@@H]1CCN(c2cncc(C(F)(F)F)c2)C1 [Example 1, (R)-2-(4-cyclopropylphenyl)-N-(1-(5-(trifluoromethyl)pyridin-3-yl)pyrrolidin-3-yl)acetamide] | ≥ 20%
4 | CC(C)c1ccc(CC(=O)N[C@@H]2CCN(c3cncc(C(F)(F)F)c3)C2)cc1 [Example 4, (R)-2-(4-isopropylphenyl)-N-(1-(5-(trifluoromethyl)pyridin-3-yl)pyrrolidin-3-yl)acetamide] | ≥ 20%
5 | O=C(Cc1ccc(C2CC2)cc1)N[C@H]1CN(c2cncc(C(F)(F)F)c2)C[C@@H]1O [Example 5, 2-(4-Cyclopropylphenyl)-N-((3S,4S)-4-hydroxy-1-(5-(trifluoromethyl)pyridin-3-yl)pyrrolidin-3-yl)acetamide] | ≥ 20%
6 | O=C(Cc1ccc(C2CC2)cc1)N[C@H]1CN(c2nc(C(F)(F)F)cs2)CC12CC2 [Example 8, (R)-2-(4-cyclopropylphenyl)-N-(5-(4-(trifluoromethyl)thiazol-2-yl)-5-azaspiro[2.4]heptan-7-yl)acetamide] | < 10%
7 | O=C(Cc1ccc(C(F)(F)F)cc1)N[C@@H]1CCN(c2cncc(C(F)(F)F)n2)C1 [Example 11, (R)-2-(4-(trifluoromethyl)phenyl)-N-(1-(6-(trifluoromethyl)pyrazin-2-yl)pyrrolidin-3-yl)acetamide] | ≥ 20%
8 | N#Cc1ncc(N2CC[C@@H](NC(=O)Cc3ccc(C4CC4)cc3)C2)cc1C(F)(F)F [Example 12, (R)—N-(1-(6-cyano-5-(trifluoromethyl)pyridin-3-yl)pyrrolidin-3-yl)-2-(4-cyclopropylphenyl)acetamide] | 10 to 20%
9 | O=C(Cc1ccc(N2CCS(=O)(=O)CC2)cc1)N[C@@H]1CCN(c2cncc(C(F)(F)F)c2)C1 [Example 23, (R)-2-(4-(1,1-dioxidethiomorpholino)phenyl)-N-(1-(5-(trifluoromethyl)pyridin-3-yl)pyrrolidin-3-yl)acetamide] | < 10%
10 | N#CC1(NC(=O)Cc2ccc(C3CC3)cc2)CCN(c2cncc(C(F)(F)F)c2)C1 (stereo not drawn) [Example 36, N-(3-cyano-1-(5-(trifluoromethyl)pyridin-3-yl)pyrrolidin-3-yl)-2-(4-cyclopropylphenyl)acetamide] | < 10%
11 | COC(=O)C1(NC(=O)Cc2ccc3cc[nH]c3c2)CCN(c2cncc(C(F)(F)F)c2)C1 (stereo not drawn) [Example 37, Methyl 3-(2-(1H-indol-6-yl)acetamido)-1-(5-(trifluoromethyl)pyridin-3-yl)pyrrolidine-3-carboxylate] | < 10%
12 | O=C(N[C@@H]1CCN(c2cncc(C(F)(F)F)c2)C1)[C@H]1C[C@@H]1c1nc2ccccc2o1 [Example 39, (1S,2S)-2-(benzo[d]oxazol-2-yl)-N—((R)-1-(5-(trifluoromethyl)pyridin-3-yl)pyrrolidin-3-yl)cyclopropane-1-carboxyamide] | ≥ 20%
13 | O=C(N[C@@H]1CCN(c2cncc(C(F)(F)F)c2)C1)[C@H]1C[C@@H]1c1nc2cc(F)ccc2o1 [Example 49, (1S,2S)-2-(5-fluorobenzo[d]oxazol-2-yl)-N—((R)-1-(5-(trifluoromethyl)pyridin-3-yl)pyrrolidin-3-yl)cyclopropane-1-carboxyamide] | ≥ 20%
14 | O=C(N[C@@H]1CCN(c2ccc(C(F)(F)F)nc2)C1)[C@H]1C[C@@H]1c1nc2ccccc2[nH]1 [Example 54, (1S,2S)-2-(1H-benzo[d]imidazol-2-yl)-N—((R)-1-(6-(trifluoromethyl)pyridin-3-yl)pyrrolidin-3-yl)cyclopropane-1-carboxyamide] | < 10%
15 | O=C(N[C@@H]1CCN(c2cnc(C(F)(F)F)nc2)C1)[C@H]1C[C@@H]1c1nc2ccccc2[nH]1 [Example 70, (1S,2S)-2-(1H-benzo[d]imidazol-2-yl)-N—((R)-1-(2-(trifluoromethyl)pyrimidin-5-yl)pyrrolidin-3-yl)cyclopropane-1-carboxyamide] | < 10%
16 | O=C(N[C@@H]1CCN(c2cncc(C(F)(F)F)c2)C1)[C@H]1C[C@@H]1c1nc2ccccc2[nH]1 [Example 71, (1S,2S)-2-(1H-benzo[d]imidazol-2-yl)-N—((R)-1-(5-(trifluoromethyl)pyridin-3-yl)pyrrolidin-3-yl)cyclopropane-1-carboxyamide] | < 10%
17 | O=C(Cc1ccc2ncccc2c1)N[C@@H]1CCN(c2cncc(C(F)(F)F)c2)C1 [Example 77, (R)-2-(quinolin-6-yl)-N-(1-(5-(trifluoromethyl)pyridin-3-yl)pyrrolidin-3-yl)acetamide] | < 10%

Row | Compound | inhibition in vivo at 30 mg/kg
18 | O=C(Cc1ccc2cccnc2c1)N[C@@H]1CCN(c2cncc(C(F)(F)F)c2)C1 [Example 79, (R)-2-(quinolin-7-yl)-N-(1-(5-(trifluoromethyl)pyridin-3-yl)pyrrolidin-3-yl)acetamide hydrochloride] | < 10%
19 | O=C(Cc1ccc(N2CCC(F)(F)C2)cc1)N[C@@H]1CCN(c2ccc(C(F)(F)F)nc2)C1 [Example 84, (R)-2-(4-(3,3-difluoropyrrolidin-1-yl)phenyl)-N-(1-(6-(trifluoromethyl)pyridin-3-yl)pyrrolidin-3-yl)acetamide] | < 10%
20 | O=C(Cc1ccc2cc[nH]c2c1)N[C@@H]1CCN(c2ccc(C(F)(F)F)nc2)C1 [Example 85, (R)-2-(1H-indol-6-yl)-N-(1-(6-(trifluoromethyl)pyridin-3-yl)pyrrolidin-3-yl)acetamide] | < 10%
21 | CC(C)c1ccc(CC(=O)NC2CCN(c3cncc(C(F)(F)F)c3)CC2)cc1 [Example 109, 2-(4-Isopropylphenyl)-N-(1-(5-(trifluoromethyl)pyridin-3-yl)piperidin-4-yl)acetamide] | ≥ 20%
22 | COc1ncc(N2CC[C@@H](NC(=O)Cc3ccc(C(C)C)cc3)C2)cc1C(F)(F)F [Example 110, (R)-2-(4-isopropylphenyl)-N-(1-(6-methoxy-5-(trifluoromethyl)pyridin-3-yl)pyrrolidin-3-yl)acetamide] | ≥ 20%
23 | CC(C)c1ccc(CC(=O)N[C@@H]2CCN(c3nc(C(F)(F)F)cs3)C2)cc1 [Example 112, (R)-2-(4-isopropylphenyl)-N-(1-(4-(trifluoromethyl)thiazol-2-yl)pyrrolidin-3-yl)acetamide] | ≥ 20%
24 | CC(C)c1ccc(CC(=O)N[C@@H]2CCN(c3ccc(C(F)(F)F)nc3)C2)cc1 [Example 113, (R)-2-(4-isopropylphenyl)-N-(1-(6-(trifluoromethyl)pyridin-3-yl)pyrrolidin-3-yl)acetamide] | 10 to 20%
25 | CC(C)c1ccc(CC(=O)NC2CN(c3cncc(C(F)(F)F)c3)C2)cc1 [Example 117, 2-(4-Isopropylphenyl)-N-(1-(5-(trifluoromethyl)pyridin-3-yl)azetidin-3-yl)acetamide] | ≥ 20%
26 | O=C(Cc1ccc(C2CC2)cc1)N[C@@H]1CCN(c2ccc(C(F)(F)F)nc2)C1 [Example 121, (R)-2-(4-cyclopropylphenyl)-N-(1-(6-(trifluoromethyl)pyridin-3-yl)pyrrolidin-3-yl)acetamide] | < 10%
27 | O=C(Cc1ccc(C(F)(F)F)cc1)N[C@@H]1CCN(c2cncc(C(F)(F)F)c2)C1 [Example 123, (R)-2-(4-(trifluoromethyl)phenyl)-N-(1-(5-(trifluoromethyl)pyridin-3-yl)pyrrolidin-3-yl)acetamide] | ≥ 20%
28 | O=C(Cc1ccc2cc[nH]c2c1)N[C@@H]1CCN(c2cncc(C(F)(F)F)c2)C1 [Example 124, (R)-2-(1H-indol-6-yl)-N-(1-(5-(trifluoromethyl)pyridin-3-yl)pyrrolidin-3-yl)acetamide] | ≥ 20%
29 | CC(C)(O)c1ccc(CC(=O)N[C@@H]2CCN(c3cncc(C(F)(F)F)c3)C2)cc1 [Example 131, (R)-2-(4-(2-hydroxypropan-2-yl)phenyl)-N-(1-(5-(trifluoromethyl)pyridin-3-yl)pyrrolidin-3-yl)acetamide] | < 10%
30 | CC(C)(C(=O)N[C@@H]1CCN(c2cncc(C(F)(F)F)c2)C1)c1ccc(C2CC2)cc1 [Example 135, (R)-2-(4-cyclopropylphenyl)-2-methyl-N-(1-(5-(trifluoromethyl)pyridin-3-yl)pyrrolidin-3-yl)propanamide] | < 10%
31 | NC(C(=O)N[C@@H]1CCN(c2cncc(C(F)(F)F)c2)C1)c1ccc(C2CC2)cc1 (stereo partly drawn) [Example 137, 2-amino-2-(4-cyclopropylphenyl)-N—((R)-1-(5-(trifluoromethyl)pyridin-3-yl)pyrrolidin-3-yl)acetamide] | ≥ 20%
32 | O=C(Cc1ccc(C(F)(F)F)cc1F)N[C@@H]1CCN(c2cncc(C(F)(F)F)c2)C1 [Example 141, (R)-2-(2-fluoro-4-(trifluoromethyl)phenyl)-N-(1-(5-(trifluoromethyl)pyridin-3-yl)pyrrolidin-3-yl)acetamide] | < 10%
33 | O=C(Cc1ccc(N2CCOCC2)cc1)N[C@@H]1CCN(c2cncc(C(F)(F)F)c2)C1 [Example 181, (R)-2-(4-morpholinophenyl)-N-(1-(5-(trifluoromethyl)pyridin-3-yl)pyrrolidin-3-yl)acetamide] | ≥ 20%
